Measurements taken from patent US10980725B2, “Cosmetic compositions and method of treating the skin” (Johnson & Johnson Consumer Inc., priority 2017, dated 2021).
Like-named read-outs stand apart in the source and are kept apart here.

Tests used:
[1] = target: T1, Human Retinoic Acid Receptor Gamma (Homo sapiens, UniProt P13631); experiment: RARγ transactivation cellular assay (luciferase reporter, Indigo Biosciences #IB02001); assay type: cell-based; conditions: for RARγ transactivation (in words): 0.1 μM, 1 μM and 10 μM; for RARγ receptor transactivation values (ratio: RLU of tested material/RLU of control): 24 h incubation
T1 sequence (P13631 1-454): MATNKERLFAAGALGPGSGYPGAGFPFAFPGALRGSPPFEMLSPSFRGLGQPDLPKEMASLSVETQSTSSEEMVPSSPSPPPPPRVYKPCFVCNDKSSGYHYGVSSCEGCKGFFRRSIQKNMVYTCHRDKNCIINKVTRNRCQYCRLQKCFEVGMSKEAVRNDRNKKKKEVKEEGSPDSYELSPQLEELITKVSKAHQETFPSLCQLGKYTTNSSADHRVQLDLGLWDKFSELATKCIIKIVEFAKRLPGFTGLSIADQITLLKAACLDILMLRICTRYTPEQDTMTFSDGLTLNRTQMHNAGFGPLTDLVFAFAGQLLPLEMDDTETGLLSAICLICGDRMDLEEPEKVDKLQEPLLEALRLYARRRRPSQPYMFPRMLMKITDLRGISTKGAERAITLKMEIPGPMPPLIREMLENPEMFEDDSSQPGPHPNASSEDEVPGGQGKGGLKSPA
Procedure: Test Method 1 RARγ Transactivation Cellular Assay
This assay system uses non-human cells engineered to provide constitutive, high-level expression of the Human Retinoic Acid Receptor Gamma, a ligand-dependent transcription factor. Cells include the luciferase reporter gene functionally linked to a RARγ-responsive promoter. Thus, quantifying changes in luciferase expression in the treated reporter cells provides a sensitive measure of the changes in RARγ activity.
Engineered cells are seeded in 96-well plates and treated with the assessed compounds at 3 concentrations: 0.1 μM, 1 μM and 10 μM. After 24 h incubation, treatment media are discarded and Luciferase detection reagent is added. Light emission from each assay well is quantified using a plate-reading luminometer.

[2] = tested on: CRABP2 (cellular retinoic acid binding protein-II) gene expression; experiment: CRABP2 gene expression in human skin explants (qPCR); assay type: cell-based; conditions: 48 h; for CRABP2 mRNA expression in skin explant: topical; for CRABP2 gene expression in human skin explants (in words): applied topically, 10 μM and 100 μM
Procedure: (§1) Test Method 3 CRABP2 (Cellular Retinoic Acid Binding Protein-II) and HBEGF (Heparin-Binding Epidermal Growth Factor-Like Growth Factor) Gene Expression in Human Explants
(§2) Human skin explants were prepared as described by Bellemère et al. (Journal of Investigative Dermatology (2008) 128, 542-548), treated with 4 μl of compound (1) or (2) (Cpd (1) and Cpd (2) in the figure) at 2 concentrations: 10 μM and 100 μM and incubated at 37° C., 5% CO2 in 6-well plates containing 1.5 ml of medium during 48 h. After 48 h, the epidermis of each explant is detached from the dermis and (i) lysed for RNA extraction with Qiagen Rneasy kit, (ii) reverse transcripted using the thermocycler iCycler from Biorad and Applied Biosystems kit and (iii) analyzed for gene expression by performing a qPCR using the CFX96 Biorad Q-PCR system and Power Sybergreen PCR master mix from Applied Biosystems. All steps were performed according to the manufacturer's instructions. […] Compounds (1) and (2), used at doses of 10 μM and 100 μM, elicit retinol-like bioactivity, as shown by the induction of CRABP2 and HB-EGF gene expression.

[3] = tested on: HBEGF (heparin-binding epidermal growth factor-like growth factor) gene expression; experiment: HBEGF gene expression in human skin explants (qPCR); assay type: cell-based; conditions: 48 h; for HB-EGF gene expression in skin explant: topical; for HBEGF gene expression in human skin explants (in words): applied topically, 10 μM and 100 μM
Procedure: as §1, §2

[4] = tested on: interleukin 8 (IL-8 mRNA); experiment: Gene expression of inflammatory mediator interleukin 8 in skin explant; assay type: cell-based, human; conditions: 48 h; for IL-8 mRNA expression in skin explant: topical; for IL-8 mRNA expression as compared to Neutrogena RWR (in words): skin explant
Procedure: as §2
Test Method 4 Gene Expression of Inflammatory Mediator Interleukin 8 (IL-8 mRNA)
The skin explant used in Test Method 3 was used to measure the expression of the gen for IL-8 mRNA.
As depicted in the Figure below, IL-8 mRNA expression is lower in explant treated with both compounds (1) and (2) as compared to Neutrogena RWR.

RARγ receptors = target: T2, RARγ receptors (Homo sapiens, UniProt P13631); experiment: GenBLAzer RAR gamma cell-based assay, agonist mode (AG) and positive allosteric modulator mode (PAM); conditions: unit from horizontal axis of FIG. 1
T2 sequence (P13631 185-419 limits assumed): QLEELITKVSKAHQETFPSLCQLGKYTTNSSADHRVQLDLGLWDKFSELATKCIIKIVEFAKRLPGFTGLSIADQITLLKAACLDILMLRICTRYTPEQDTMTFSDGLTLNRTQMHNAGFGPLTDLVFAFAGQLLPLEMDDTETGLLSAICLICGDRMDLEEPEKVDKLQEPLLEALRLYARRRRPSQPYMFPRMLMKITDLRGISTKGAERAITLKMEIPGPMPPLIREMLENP
Procedure: Test Method 2 RARγ Receptors in Both Agonist Mode (AG) and Positive Allosteric Modulator Mode (PAM)
Dose response activity on RARγ receptors in both agonist mode (AG) and Positive allosteric modulator mode (PAM) was tested using Invitrogen's GenBLAzer® RAR gamma cell-based assay according to the manufacturer's instructions.

[5] = 10^−4M in vehicle (PG70/EtOH30)
[6] = 10^−5M in vehicle (PG70/EtOH30)
[7] = agonist mode, read-out: average EC50, dose response activity on RARγ in agonist mode
[8] = positive allosteric modulator mode, read-out: average EC50, dose response activity on RARγ in positive allosteric modulator mode

| Structure (SMILES) | RARγ transactivation (in words) [1] | RARγ receptor transactivation values (ratio: RLU of tested material/RLU of control) ([1]; concentration 0.1 μM) | RARγ receptor transactivation values (ratio: RLU of tested material/RLU of control) ([1]; concentration 1 μM) | RARγ receptor transactivation values (ratio: RLU of tested material/RLU of control) ([1]; concentration 10 μM) | CRABP2 mRNA expression in skin explant [2, 5] [% control] | CRABP2 mRNA expression in skin explant [2, 6] [% control] | CRABP2 gene expression in human skin explants (in words) [2] | HB-EGF gene expression in skin explant [3, 5] [%] | HB-EGF gene expression in skin explant [3, 6] [%] | HBEGF gene expression in human skin explants (in words) [3] | IL-8 mRNA expression in skin explant [4, 5] [% control] | IL-8 mRNA expression in skin explant [4, 6] [% control] | IL-8 mRNA expression as compared to Neutrogena RWR (in words) [4] | EC50 (RARγ receptors; [7]) [nM] | EC50 (RARγ receptors; [8]) [nM] |
| --- | --- | --- | --- | --- | --- | --- | --- | --- | --- | --- | --- | --- | --- | --- | --- |
| CC(/C=C/C=C(\C)c1ccc2c(c1)C(C)(C)C(C)(C)C2(C)C)=C\C(=O)O [Compound 1, (2E,4E,6E)-7-(1,1,2,2,3,3-hexamethyl-2,3-dihydro-1H-inden-5-yl)-3-methylocta-2,4,6-trienoic acid] | showed RARγ transactivation | 10.6988 | 8.4578 | 6.506 | 496 | 256 | induced | 513 | 218 | induced | 410 | 422 | lower | 0.0831 | 0.0301 |
| C=C(c1ccc(C(=O)O)cc1)c1ccc2c(c1)C(C)(C)C(C)(C)C2(C)C [Compound 2, 4-(1-(1,1,2,2,3,3-hexamethyl-2,3-dihydro-1H-inden-5-yl)vinyl)benzoic acid] | showed RARγ transactivation | 5.5663 | 3.253 | 6.7229 | 340 | 191 | induced | 358 | 173 | induced | 690 | 334 | lower | 7.1 ± 0.7 | 6.7 ± 2.7 |
